Assay results published in ChEMBL document CHEMBL1151426, “Pharmacodynamics of doxycycline in a murine malaria model” (Antimicrob Agents Chemother, 2007).
Calls of active or inactive are those of the source. The rule behind the calls is not given here.

Tests used:
Plasmodium berghei [1] = test: Antimalarial activity as reduced parasitaemia against Plasmodium berghei ANKA infected Swiss mice (Mus musculus) up to 180 mg/kg intraperitoneal single dose 64 hrs post infection; format: functional, organism-based; parameters: dose 180 mg/kg
Plasmodium berghei [2] = test: Antimalarial activity as reduced parasitaemia against Plasmodium berghei ANKA infected Swiss mice (Mus musculus) at 90 mg/kg intraperitoneal dose at 65, 76 and 88 hrs post infection; format: functional, organism-based; parameters: dose 90 mg/kg
Mus musculus [3] = test: Toxicity in Plasmodium berghei ANKA infected Swiss mice (Mus musculus) assessed as discomfort at 180 mg/kg, intraperitoneally administered as single dose 64 hrs after infection; format: organism-based; parameters: dose 180 mg/kg, route intraperitoneal; settings: in vivo, ip
Mus musculus [4] = test: Toxicity in Plasmodium berghei ANKA infected Swiss mice (Mus musculus) assessed as adverse effect at 90 mg/kg, intraperitoneally administered at 1,12 and 24 hrs after 64 hrs postinfection; format: organism-based; parameters: dose 90 mg/kg, route intraperitoneal; settings: in vivo, ip
Plasmodium berghei [5] = test: Antimalarial activity as parasitaemia against Plasmodium berghei ANKA infected Swiss mice (Mus musculus) at 90 mg/kg intraperitoneal dose 65, 76 and 88 hrs post infection (Rvb=2.5%+/-0.5%); format: functional
Mus musculus [6] = test: Toxicity in Plasmodium berghei ANKA infected Swiss mice (Mus musculus) assessed as median time for adverse effect at 90 mg/kg, intraperitoneally administered at 1,12 and 24 hrs after 64 hrs postinfection; format: organism-based; parameters: dose 90 mg/kg, route intraperitoneal; settings: in vivo, ip
Plasmodium berghei [7] = test: Antimalarial activity as parasitaemia nadir against Plasmodium berghei ANKA infected Swiss mice (Mus musculus) at 90 mg/kg intraperitoneal dose 65, 76 and 88 hrs post infection; format: functional
[8] = Half life in Plasmodium falciparum infected human at 200 mg/day, perorally after 7 days; format: ADME, organism-based; settings: in vivo, po
[9] = Half life in Plasmodium falciparum infected human dosed every 24 hrs after 48 hrs of infection; format: ADME, organism-based; settings: in vivo
[10] = Half life in healthy mouse at 50 mg/kg; format: ADME, organism-based; parameters: dose 50 mg/kg; settings: in vivo
Plasmodium berghei [11] = test: Antimalarial activity as reduced parasitaemia after 24hrs against Plasmodium berghei ANKA infected Swiss mice (Mus musculus) at 30 mg/kg intraperitoneal single dose 64 hrs post infection; format: functional, organism-based; parameters: dose 30 mg/kg
Plasmodium berghei [12] = test: Antimalarial activity as parasitaemia against Plasmodium berghei ANKA infected Swiss mice (Mus musculus) at 30 mg/kg intraperitoneal single dose 64 hrs post infection (Rvb=2.5%+/-0.5%); format: functional
Mus musculus [13] = test: Toxicity in Plasmodium berghei ANKA infected Swiss mice (Mus musculus) assessed as median time for adverse effect at 30 mg/kg, intraperitoneally administered as single dose 64 hrs after infection measured after 24 hrs; format: organism-based; parameters: dose 30 mg/kg, route intraperitoneal; settings: in vivo, ip
Plasmodium berghei [14] = test: Antimalarial activity as parasitaemia nadir after 24 hrs against Plasmodium berghei ANKA infected Swiss mice (Mus musculus) at 30 mg/kg intraperitoneal single dose 64 hrs post infection; format: functional

| half-life [8] [h] | half-life [9] [h] | half-life [10] [h] | SMILES | Activity (Plasmodium berghei [1]) | Activity (Plasmodium berghei [2]) | Activity (Mus musculus [3]) | Activity (Mus musculus [4]) | Activity (Plasmodium berghei [5]) [%] | Time (Mus musculus [6]) [days] | Activity (Plasmodium berghei [7]) [%] | Activity (Plasmodium berghei [11]) | Activity (Plasmodium berghei [12]) [%] | Activity (Mus musculus [13]) [days] | Activity (Plasmodium berghei [14]) [%] |
| --- | --- | --- | --- | --- | --- | --- | --- | --- | --- | --- | --- | --- | --- | --- |
| 14 | 10.5 | 2.8 | C[C@H]1c2cccc(O)c2C(=O)C2=C(O)[C@]3(O)C(=O)C(C(N)=O)=C(O)[C@@H](N(C)C)[C@@H]3[C@@H](O)[C@@H]21.O [DOXYCYCLINE] | inactive | Active | Toxic | Non-toxic | 3 | 6 | 0.06 | – | – | – | – |
| – | – | – | C[C@H]1[C@@H](O)O[C@@H]2O[C@@]3(C)CC[C@H]4[C@H](C)CC[C@@H]1[C@@]24OO3 [ARTENIMOL] | – | – | – | – | – | – | – | Active | 2.6 | 1 | 0.53 |
